From patent US6534491B2, “Preparation and use of ortho-sulfonamido bicyclic heteroaryl hydroxamic acids as matrix metalloproteinase and tace inhibitors” (priority 1996, dated 2003)
Structures can show the parent of a compound that is named as a salt. Where two headings read alike, the source gives them in different places.

What was measured:
MMP-1 = target: T1, MMP-1 (Homo sapiens, UniProt P03956); test: biochemical; details: for IC50: MMP-1 IC50
T1 sequence (P03956 100-469): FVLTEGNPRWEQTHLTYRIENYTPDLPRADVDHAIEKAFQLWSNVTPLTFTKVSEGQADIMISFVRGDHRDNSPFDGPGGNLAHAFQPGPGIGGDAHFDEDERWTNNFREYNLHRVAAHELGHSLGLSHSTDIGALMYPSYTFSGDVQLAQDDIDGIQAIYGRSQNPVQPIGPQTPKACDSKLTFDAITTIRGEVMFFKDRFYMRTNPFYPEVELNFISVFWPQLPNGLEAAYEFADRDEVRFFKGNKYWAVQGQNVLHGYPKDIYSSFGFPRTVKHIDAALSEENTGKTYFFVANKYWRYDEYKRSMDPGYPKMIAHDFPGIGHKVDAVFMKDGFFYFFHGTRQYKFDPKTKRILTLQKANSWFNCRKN

MMP-13 = MMP-13 (Homo sapiens, UniProt P45452); test: MMP-13 inhibition (thiopeptide or fluorescent peptide substrate); format: biochemical
Experimental: (§1) The enzyme activity is measured by the rate of the color increase. The thiopeptide substrate is made up fresh as a 20 mM stock in 100% DMSO and the DTNB is dissolved in 100% DMSO as a 100 mM stock and stored in the dark at room temperature. Both the substrate and DTNB are diluted together to 1 mM with substrate buffer (50 mM HEPES pH 7.5, 5 mM CaCl2) before use. The stock of enzyme is diluted with buffer (50 mM HEPES, pH 7.5, 5 mM CaCl2, 0.02% Brij) to the desired final concentration.
(§2) Alternatively, a fluorescent peptide substrate is used. In this test procedure, the peptide substrate contains a fluorescent group and a quenching group. Upon cleavage of the substrate by an MMP, the fluorescence that is generated is quantitated on the fluorescence plate reader. The assay is run in HCBC assay buffer (50 mM HEPES, pH 7.0, 5 mM Ca^+2, 0.02% Brij, 0.5% Cysteine), with human recombinant MMP-1, MMP-9, or MMP-13. The substrate is dissolved in methanol and stored frozen in 1 mM aliquots. For the assay, substrate and enzymes are diluted in HCBC buffer to the desired concentrations. Compounds are added to the 96 well plate containing enzyme and the reaction is started by the addition of substrate.
(§3) For either the thiopeptide or fluorescent peptide test procedures, the slope of the line is calculated and represents the reaction rate. The linearity of the reaction rate is confirmed (r^2>0.85). The mean (x±sem) of the control rate is calculated and compared for statistical significance (p<0.05) with drug-treated rates using Dunnett's multiple comparison test.

TACE = TACE (Homo sapiens, UniProt P78536); test: TACE inhibition (fluorescent peptidyl substrate); format: biochemical; details: for inhibition at 1 µM: read-out: TACE % inhibition
Experimental: Using 96-well black microtiter plates, each well receives a solution composed of 10 μL TACE (final concentration 1 μg/mL), 70 μL Tris buffer, pH 7.4 containing 10% glycerol (final concentration 10 mM), and 10 μL of test compound solution in DMSO (final concentration 1 μl M, DMSO concentration <1%) and incubated for 10 minutes at room temperature.
The reaction is read (excitation 340 nm, emission 420 nm) for 10 min. and the increase in fluorescence over time is plotted as a linear line. The slope of the line is calculated and represents the reaction rate.
The linearity of the reaction rate is confirmed (r^2>0.85). The mean (x±sem) of the control rate is calculated and compared for statistical significance (p<0.05) with drug-treated rates using Dunnett's multiple comparison test.

MMP-9 = MMP-9 (Homo sapiens, UniProt P14780); test: MMP-9 inhibition (thiopeptide or fluorescent peptide substrate); format: biochemical
Chain of MMP-9 (P14780 94-707): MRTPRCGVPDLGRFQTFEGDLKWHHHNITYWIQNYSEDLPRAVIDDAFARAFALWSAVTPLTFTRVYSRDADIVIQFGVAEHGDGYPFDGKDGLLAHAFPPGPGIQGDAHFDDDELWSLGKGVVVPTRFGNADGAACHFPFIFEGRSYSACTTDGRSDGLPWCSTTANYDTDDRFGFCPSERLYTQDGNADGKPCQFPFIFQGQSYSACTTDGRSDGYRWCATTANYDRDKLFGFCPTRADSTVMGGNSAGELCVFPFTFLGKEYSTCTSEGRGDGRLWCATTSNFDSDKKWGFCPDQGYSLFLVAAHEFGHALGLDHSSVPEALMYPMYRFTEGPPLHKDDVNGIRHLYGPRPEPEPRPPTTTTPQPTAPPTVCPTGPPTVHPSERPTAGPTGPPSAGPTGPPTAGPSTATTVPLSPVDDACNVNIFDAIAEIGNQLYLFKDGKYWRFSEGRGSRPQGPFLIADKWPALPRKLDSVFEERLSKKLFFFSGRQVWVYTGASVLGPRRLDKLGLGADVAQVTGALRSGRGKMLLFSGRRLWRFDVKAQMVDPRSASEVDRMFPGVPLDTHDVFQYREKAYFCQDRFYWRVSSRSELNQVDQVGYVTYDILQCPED
Experimental: as §1, §2, §3

Chain of TACE (P78536 215-824): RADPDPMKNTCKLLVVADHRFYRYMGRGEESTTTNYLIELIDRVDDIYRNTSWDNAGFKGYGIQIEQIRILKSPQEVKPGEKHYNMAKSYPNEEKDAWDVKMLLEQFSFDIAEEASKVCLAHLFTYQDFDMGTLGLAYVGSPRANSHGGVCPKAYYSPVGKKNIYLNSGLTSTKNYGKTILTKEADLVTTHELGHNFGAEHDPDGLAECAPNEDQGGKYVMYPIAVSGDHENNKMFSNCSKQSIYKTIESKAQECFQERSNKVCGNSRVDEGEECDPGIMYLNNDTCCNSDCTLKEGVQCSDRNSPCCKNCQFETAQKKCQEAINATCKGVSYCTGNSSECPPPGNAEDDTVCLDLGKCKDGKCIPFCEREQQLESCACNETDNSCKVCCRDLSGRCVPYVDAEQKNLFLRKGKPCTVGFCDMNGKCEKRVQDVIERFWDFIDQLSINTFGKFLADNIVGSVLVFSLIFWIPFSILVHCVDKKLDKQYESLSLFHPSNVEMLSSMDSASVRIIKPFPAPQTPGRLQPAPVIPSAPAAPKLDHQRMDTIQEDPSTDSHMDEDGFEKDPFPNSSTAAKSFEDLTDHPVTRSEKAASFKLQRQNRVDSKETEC

Row | SMILES | IC50 (MMP-1) [nM] | IC50 (MMP-13) [nM] | IC50 (TACE) [nM] | IC50 (MMP-9; read-out: MMP-9 IC50) [nM] | also measured
1 | COc1ccc(S(=O)(=O)N(Cc2cccnc2)c2c(C(=O)NO)cnc3c2c(C)nn3-c2ccccc2)cc1 [Example 67, 4-[(4-Methoxybenzenesulfonyl)pyridin-3-ylmethylamino]-1phenyl-3-methyl-1H-pyrazolo[3,4-b]pyridine-5-carboxylic acid, hydroxyamide] | 96 | – | – | – | –
2 | COc1ccc(S(=O)(=O)N(Cc2cccnc2)c2c(C(=O)NO)cnc3onc(C)c23)cc1 [Example 87, 4-[(4-Methoxybenzenesulfonyl)pyridin-3-ylmethylamino]-3-methylisoxazolo[5,4-b]pyridine-5-carboxylic Acid, Hydroxyamide] | 111 | 10 | 147 ± 5 | 8.9 | –
3 | COc1ccc(S(=O)(=O)N(Cc2cccnc2)c2c(C(=O)NO)cnc3c(Br)cccc23)cc1 [Example 37, 4-[(4-Methoxy-benzenesulfonyl)-pyridin-3-ylmethyl-amino]-8-bromo-quinoline-3-carboxylic acid hydroxyamide] | 65 | 1 | 124 | 2 | –
4 | COc1ccc(S(=O)(=O)N(Cc2cccnc2)c2c(C(=O)NO)cnc3c2cnn3-c2ccccc2)cc1 [Example 64, 4-[(4-Methoxybenzenesulfonyl)pyridin-3-ylmethylamino]-1-phenyl-1H-pyrazolo[3,4-b]pyridine-5-carboxylic acid, hydroxyamide, hydrochloride] | 913 | 19 | – | 5.5 | –
5 | COc1ccc(S(=O)(=O)N(Cc2ccccc2)c2c(C(=O)NO)cnc3cc(C(F)(F)F)ccc23)cc1 [Example 11, 4-[Benzyl-(4-methoxy-benzenesulfonyl)-amino]-7-trifluoromethyl-quinoline-3-carboxylic acid hydroxyamide] | – | 7 | > 1000 | 11 | –
6 | CCN(c1c(C(=O)NO)cnc2ccc(C#Cc3ccccc3)cc12)S(=O)(=O)c1ccc(OC)cc1 [Example 34, 4-[Ethyl-(4-methoxy-benzenesulfonyl)-amino]-6-phenylethynyl-quinoline-3-carboxylic acid hydroxyamide] | 301 | 12 | 20 | 9 | –
7 | CCCCCCCCS(=O)(=O)N(Cc1cccnc1)c1c(C(=O)NO)cnc2cc(C(F)(F)F)ccc12 [Example 43, 4-[(Octane-1-sulfonyl)-pyridin-3-ylmethyl-amino]-7-trifluoromethyl-quinoline-3-carboxylic acid hydroxyamide] | – | – | – | – | inhibition at 1 µM (MMP-13; read-out: MMP-13 % inhibition, at 1 μM concentration): 63%; inhibition at 1 µM (MMP-1; read-out: MMP-1 % inhibition): 43%; inhibition at 1 µM (TACE; at 1 μM concentration): 20%; inhibition at 1 µM (MMP-9; read-out: MMP-9 % inhibition, at 1 μM concentration): 71%
8 | COc1ccc(S(=O)(=O)N(Cc2ccccc2)c2c(C(=O)NO)cnc3c(C(F)(F)F)cccc23)cc1 [Example 12, 4-[Benzyl-(4-methoxy-benzenesulfonyl)-amino]-8-trifluoromethyl-quinoline-3-carboxylic acid hydroxyamide] | 933 | 1 | 190 | 2 | –
9 | COc1ccc(S(=O)(=O)N(Cc2ccccc2)c2c(C(=O)NO)cnc3ccc([N+](=O)[O-])cc23)cc1 [Example 30, 4-[Benzyl-(4-methoxy-benzenesulfonyl)-amino]-6-nitro-quinoline-3-carboxylic acid hydroxyamide] | 22 | 467 | 47 | 11 | –
10 | COc1ccc(S(=O)(=O)N(Cc2cccnc2)c2c(C(=O)NO)cnc3c(-c4ccccc4)cccc23)cc1 [Example 40, 4-[(4-Methoxy-benzenesulfonyl)-pyridin-3-ylmethyl-amino]-8-phenyl-quinoline-3-carboxylic acid hydroxyamide] | 151 | 4 | 120 | 3 | –
11 | COc1ccc(S(=O)(=O)N(Cc2ccccc2)c2c(C(=O)NO)cnc3c2cnn3-c2ccccc2)cc1 [Example 62, 4-[Benzyl-(4-methoxybenzenesulfonyl)amino]-1-phenyl-1H-pyrazolo[3,4-b]pyridine-5-carboxylic acid, hydroxyamide] | 1240 | 23 | – | 5.7 | inhibition at 1 µM (TACE; at 1 μM concentration): 46%
12 | COc1ccc(S(=O)(=O)N(Cc2ccccc2)c2c(C(=O)NO)cnc3ccc(Br)cc23)cc1 [Example 13, 4-[Benzyl-(4-methoxy-benzenesulfonyl)-amino]-6-bromo-quinoline-3-carboxylic acid hydroxyamide] | 82 | 9 | – | 15 | inhibition at 1 µM (TACE; at 1 μM concentration): 3%
13 | Cc1nn(C)c2ncc(C(=O)NO)c(N(C)S(=O)(=O)c3ccc(Oc4ccncc4)cc3)c12 [91(HC1), 4-{Methyl-[4-(4-pyridinyloxy)benzenesulfonyl]amino}-1,3-dimethyl-1H-pyrazolo[3,4-b]pyridine-5-carboxylic Acid, Hydroxyamide] | – | – | – | – | inhibition at 1 µM (TACE): 38.7%; IC50 (MMP-9; MMP-9 IC50): 1.8 nM
14 | COc1ccc(S(=O)(=O)N(Cc2ccccc2)c2c(C(=O)NO)cnc3c(C(C)C)cccc23)cc1 [Example 20, 4-[Benzyl-(4-methoxybenzenesulfonyl)-amino]-8-(1-methylethyl)-quinoline-3-carboxylic acid hydroxyamide] | 344 | 9 | 589 | 6 | –
15 | COc1ccc(S(=O)(=O)N(Cc2cccnc2)c2c(C(=O)NO)cnc3c(Cc4ccccc4)cccc23)cc1 [Example 38, 4-[(4-methoxy-benzenesulfonyl)-pyridin-3-ylmethylamino]-8-Benzyl-quinoline-3-carboxylic acid hydroxyamide] | 100 | 3 | 336 | 4 | –
16 | O=C(NO)c1cnc2cc(C(F)(F)F)ccc2c1N(Cc1cccnc1)S(=O)(=O)c1ccc(-c2ccccc2)cc1 [Example 42, 4-[(Biphenyl-4-sulfonyl)-pyridin-3-ylmethyl-amino]-7-trifluoromethyl-quinoline-3-carboxylic acid hydroxyamide] | 5200 | – | – | 874 | –
17 | COc1ccc(S(=O)(=O)N(Cc2ccccc2)c2c(C(=O)NO)cnc3cc(Br)ccc23)cc1 [Example 14, 4-[Benzyl-(4-methoxy-benzenesulfonyl)-amino]-7-bromo-quinoline-3-carboxylic acid hydroxyamide] | – | 6 | – | 8 | inhibition at 1 µM (TACE; at 1 μM concentration): 24%
18 | COc1ccc(S(=O)(=O)N(Cc2ccccc2)c2c(C(=O)NO)cnc3ccc(C(F)(F)F)cc23)cc1 [Example 15, 4-[Benzyl-(4-methoxy-benzenesulfonyl)-amino]-6-trifluoromethyl-quinoline-3-carboxylic acid hydroxyamide] | – | 12 | – | 25 | inhibition at 1 µM (TACE; at 1 μM concentration): 7%
19 | COc1ccc(S(=O)(=O)N(Cc2cccnc2)c2c(C(=O)NO)cnc3c(I)cccc23)cc1 [Example 39, 4-[(4-Methoxy-benzenesulfonyl)-pyridin-3-ylmethyl-amino]-8-iodo-quinoline-3-carboxylic acid hydroxyamide] | – | 2 | 53 | 2 | –
20 | C=Cc1cccc2c(N(CC)S(=O)(=O)c3ccc(OC)cc3)c(C(=O)NO)cnc12 [Example 29, 4-[Ethyl-(4-methoxy-benzenesulfonyl)-amino]-8-vinyl-quinoline-3-carboxylic acid hydroxyamide] | 200 | 4 | – | 5 | –
21 | COc1ccc(S(=O)(=O)N(C)c2c(C(=O)NO)cnc3c(Br)cccc23)cc1 [Example 31, 4-[Methyl-(4-methoxy-benzenesulfonyl)-amino]-8-bromo-quinoline-3-carboxylic acid hydroxyamide] | 225 | 2 | 80 | – | –
22 | COc1ccc(S(=O)(=O)N(Cc2cccnc2)c2c(C(=O)NO)cnc3snc(C)c23)cc1 [Example 86, 4-[(4-Methoxybenzenesulfonyl)pyridin-3-ylmethylamino]-3-methylisothiazolo[5,4-b]pyridine-5-carboxylic Acid, Hydroxyamide] | 131 | – | – | 6.9 | –
23 | CCc1cccc2c(N(Cc3ccccc3)S(=O)(=O)c3ccc(OC)cc3)c(C(=O)NO)cnc12 [Example 19, 4-[Benzyl-(4-methoxybenzenesulfonyl)-amino]-8-ethyl-quinoline-3-carboxylic acid hydroxyamide] | – | 4 | 314 | 2 | –
24 | COc1ccc(S(=O)(=O)N(Cc2ccccc2)c2c(C(=O)NO)cnc3c(C)cccc23)cc1 [Example 18, 4-[Benzyl-(4-methoxybenzenesulfonyl)-amino]-8-methyl-quinoline-3-carboxylic acid hydroxyamide] | – | 26 | 627 | – | –
25 | COc1ccc(S(=O)(=O)N(Cc2cccnc2)c2c(C(=O)NO)cnc3c2cnn3-c2ccccc2)cc1 [Example 63, 4-[(4-Methoxybenzenesulfonyl)pyridin-3-ylmethylamino]-1-phenyl-1H-pyrazolo[3,4-b]pyridine-5-carboxylic acid, hydroxyamide] | 721 | 23 | – | 6.8 | –
